± gives the standard deviation of the averaged measurements.

This assay deals with RD-ES. As to the kind of experiment: relative viability vs DMSO control (72 h) (fraction); higher = more viable cells. A digest of the protocol:
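Serially diluted compound, 2.5 µl from source plates spanning 10 mM to 0.0002 mM, was added 24 h after sarcoma cell lines were seeded in 384-well plates at densities targeting 80–90% confluence. Plates then sat 72 h at 37 °C, 5% CO2, with 0.1% DMSO vehicle and a 5 µM positive control. Relative viability came from ATPLite as percent growth, averaged over up to triplicate wells, and was rescaled with 1 as full and 0 as none.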

On to `COc1c(OCCCN2CCOCC2)ccc2c1N=C(NC(=O)c1cnc(N)nc1)N1CCN=C21` [Copanlisib], for which the relative viability stood at 0.977 ± 0.031 (0.00017 µM); 0.932 ± 0.023 (0.00051 µM); 0.947 ± 0.056 (0.00152 µM); 0.638 ± 0.087 (0.00457 µM); 0.571 ± 0.05 (0.01372 µM); 0.494 ± 0.023 (0.04115 µM). In addition, the relative viability was determined as 0.344 ± 0.013 (0.1235 µM); 0.218 ± 0.0085 (0.3704 µM); 0.0703 ± 0.0047 (1.111 µM); 0.007 ± 0.00036 (3.333 µM); 0.0101 ± 0.0011 (10 µM).

Turning to `CN1CCN(c2ccc3nc(-c4c(N)c5c(F)cccc5[nH]c4=O)[nH]c3c2)CC1` [Dovitinib], the relative viability worked out at 0.955 ± 0.025 (0.00017 µM); 0.944 ± 0.067 (0.00051 µM); 0.949 ± 0.024 (0.00152 µM); 0.943 ± 0.026 (0.00457 µM); 0.937 ± 0.014 (0.01372 µM); 0.893 ± 0.021 (0.04115 µM). The relative viability was found to be 0.899 ± 0.045 (0.1235 µM); 0.829 ± 0.027 (0.3704 µM); 0.575 ± 0.013 (1.111 µM); 0.24 ± 0.019 (3.333 µM); 0.0296 ± 0.0072 (10 µM).

On to `COCc1c(-c2cc3cc(C)cc(OC)c3s2)c2c(N)ncnn2c1CN1CCNC(=O)C1` [Rogaratinib], for which the relative viability runs as follows: (0.00017 µM) 1.04 ± 0.027; (0.00051 µM) 0.997 ± 0.028; (0.00152 µM) 1.03 ± 0.012; (0.00457 µM) 1.02 ± 0.032; (0.01372 µM) 1.03 ± 0.013; (0.04115 µM) 1 ± 0.036. In addition, the relative viability was 0.971 ± 0.043 (0.1235 µM); 0.958 ± 0.013 (0.3704 µM); 0.91 ± 0.029 (1.111 µM); 0.774 ± 0.014 (3.333 µM); 0.455 ± 0.0058 (10 µM).

For the compound `CN1CCC(COc2cnc(-c3cccc(Cn4nc(-c5cccc(C#N)c5)ccc4=O)c3)nc2)CC1` [Tepotinib], the relative viability runs as follows: (0.00017 µM) 0.997 ± 0.016; (0.00051 µM) 1.01 ± 0.013; (0.00152 µM) 1.01 ± 0.014; (0.00457 µM) 1 ± 0.013; (0.01372 µM) 0.971 ± 0.024; (0.04115 µM) 1 ± 0.017. Further, the relative viability runs as follows: (0.1235 µM) 0.99 ± 0.043; (0.3704 µM) 0.991 ± 0.035; (1.111 µM) 0.969 ± 0.029; (3.333 µM) 0.953 ± 0.017; (10 µM) 0.887 ± 0.025.

Source of the values: the supplement of paper PMC10883282.
